Assay results reported in patent US9382222B2, “Benzyl sulfonamide derivatives as RORc modulators” (Genentech, Inc., priority 2012, dated 2016).

Molecular target: T1, RORc ligand binding domain (Homo sapiens, UniProt P51449)
T1 construct: host or cells: E. coli
T1 sequence (P51449 269-508 limits assumed): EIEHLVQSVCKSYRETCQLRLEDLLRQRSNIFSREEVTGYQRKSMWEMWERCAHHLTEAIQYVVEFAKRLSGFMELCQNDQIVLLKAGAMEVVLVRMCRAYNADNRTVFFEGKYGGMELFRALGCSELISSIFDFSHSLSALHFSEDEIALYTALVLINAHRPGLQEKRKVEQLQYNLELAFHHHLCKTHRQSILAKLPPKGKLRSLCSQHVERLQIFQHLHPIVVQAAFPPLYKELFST
Test: In Vitro RORc Ligand Binding Assay
Conditions: displacement of 25-[3H]hydroxycholesterol (6 nM), 0.6 ug/mL RORc receptor, 3 h at 25° C.
Experimental: In Vitro RORc Ligand Binding Assay This assay was used to determine a compound's potency in inhibiting activity of RORc by determining, Kiapp, IC50, or percent inhibition values. […] On day of the assay, 100 uL of 0.05% CHAPS (in deionized H2O) was added to all wells of the GFB Unifilter plate and allowed soak for 1 h. A wash buffer of 50 mM HEPES (pH 7.4), 150 mM NaCl, and 5 mM MgCl2 was prepared to wash the filter plate. To prepare an assay buffer, BSA was added to the wash buffer to reach 0.01% and DTT was added to reach 1 mM. […] The 20× compound stocks were diluted in DMSO with Assay Buffer 4-fold to reach 5× the final test concentration in 25% DMSO (10 uL compound+30 uL Assay Buffer). Solutions were mixed by aspiration several times with a pipette set on 50 uL volume. For the assay, 10 uL of 5× compound stock solutions in 25% DMSO were added to the assay plate in duplicate. For two point screening, 10 mM stock compound solutions were diluted in DMSO to obtain 200 uM (20× the high test concentration) and then diluted 10-fold further to reach 20 uM (20× the low test concentration). The 20× stocks were diluted 4-fold with Assay Buffer (10 uL compound+30 uL Assay Buffer) to reach 5× the test concentrations (50 uM and 5 uM) and 10 uL were added to two assay plates for the duplicate wells. […] Add 20 uL to all wells to reach 6 nM final concentration in the assay. […] Stock receptor solution was diluted in assay buffer to obtain 1.5 ug/mL in Assay Buffer. 20 uL was added to all wells. For No Receptor samples, 20 uL Assay Buffer was substituted for receptor solution. […] Following addition to the wells, the plates were incubated 3 h at 25° C. Using a Packard Filtermate Harvester, the filter plate were washed 4 times following transfer of the incubated samples. Plates were dry-filtered completely (2 h at 50° C. or overnight at room temperature). 50 uL Microscint 0 was added to all wells and read on Topcount protocol Inverted. […] For NSB wells, 1 uM 25-hydroxycholesterol was also present.

Row | SMILES | IC50 [nM]
1 | CN(C)S(=O)(=O)N1CCN(c2ccc(S(=O)(=O)N(Cc3ccccc3C(F)(F)F)CC(F)F)cc2)CC1 [Compound 85, 4-{4-[(2,2-Difluoro-ethyl)-(2-trifluoromethyl-benzyl)-sulfamoyl]-phenyl}-piperazine-1-sulfonic acid dimethylamide] | 116
2 | CC(=O)N1CCN(c2ccc(S(=O)(=O)N(CC(F)F)c3cccc(Cl)c3)cc2)CC1 [Compound 38, 4-(4-Acetyl-piperazin-1-yl)-N-(3-chloro-phenyl)-N-(2,2-difluoro-ethyl)-benzenesulfonamide] | 1400
3 | CC(C)CN(c1cccc(Cl)c1)S(=O)(=O)c1ccc(O[C@H]2CCCN(S(C)(=O)=O)C2)cc1 [Compound 43, N-(3-Chloro-phenyl)-N-isobutyl-4-((S)-1-methanesulfonyl-piperidin-3-yloxy)-benzenesulfonamide] | 281
4 | CC(=O)N1CCN(c2ccc(S(=O)(=O)N(CC(F)(F)F)c3cccc(Cl)c3)cc2)CC1 [Compound 37, 4-(4-Acetyl-piperazin-1-yl)-N-(3-chloro-phenyl)-N-(2,2,2-trifluoro-ethyl)-benzenesulfonamide] | 305
5 | COc1ccc(CN(CC(C)C)S(=O)(=O)c2ccc(N3CCN(S(C)(=O)=O)CC3)cc2)cc1 [Compound 66, N-Isobutyl-4-(4-methanesulfonyl-piperazin-1-yl)-N-(4-methoxy-benzyl)-benzenesulfonamide] | 79
6 | CC(C)CN(c1ccc(F)cc1)S(=O)(=O)c1ccc(C(=O)NC2CCN(S(C)(=O)=O)CC2)cc1 [Compound 12, 4-[(4-Fluoro-phenyl)-isobutyl-sulfamoyl]-N-(1-methanesulfonyl-piperidin-4-yl)-benzamide] | 6100
7 | CC(C)CN(c1cccc(Cl)c1)S(=O)(=O)c1cccc(NC2CCN(S(C)(=O)=O)CC2)c1 [Compound 40, N-(3-Chloro-phenyl)-N-isobutyl-3-(1-methanesulfonyl-piperidin-4-ylamino)-benzenesulfonamide] | 480
8 | CC(C)CN(c1ccccc1Cl)S(=O)(=O)c1ccc(N2CCC(O)CC2)cc1 [Compound 16, N-(2-Chloro-phenyl)-4-(4-hydroxy-piperidin-1-yl)-N-isobutyl-benzenesulfonamide] | 1300
9 | CC(=O)N1CCN(c2ccc(S(=O)(=O)N(Cc3ccccc3C(F)(F)F)C(C)(C)C)cc2)CC1 [Compound 81, 4-(4-Acetyl-piperazin-1-yl)-N-tert-butyl-N-(2-trifluoromethyl-benzyl)-benzenesulfonamide] | 110
10 | CC(=O)N1CCN(c2ccc(S(=O)(=O)N(Cc3ccc(Cl)cc3)CC(C)C)cc2)CC1 [Compound 67, 4-(4-Acetyl-piperazin-1-yl)-N-(4-chloro-benzyl)-N-isobutyl-benzenesulfonamide] | 87
11 | CC(C)CN(Cc1ccc(OC(F)F)cc1)S(=O)(=O)c1ccc(N2CCN(S(C)(=O)=O)CC2)cc1 [Compound 72, N-(4-Difluoromethoxy-benzyl)-N-isobutyl-4-(4-methanesulfonyl-piperazin-1-yl)-benzenesulfonamide] | 83
12 | CC(C)CN(c1cccc(Cl)c1)S(=O)(=O)c1ccc(N2CCC(NS(C)(=O)=O)CC2)cc1 [Compound 23, N-(3-Chloro-phenyl)-N-isobutyl-4-(4-methanesulfonylamino-piperidin-1-yl)-benzenesulfonamide] | 169
13 | CC(=O)N1CCN(c2ccc(S(=O)(=O)N(c3cccc(Cl)c3)C3CCC3)cc2)CC1 [Compound 30, 4-(4-Acetyl-piperazin-1-yl)-N-(3-chloro-phenyl)-N-cyclobutyl-benzenesulfonamide] | 149
14 | CC(C)CN(c1ccc(F)cc1)S(=O)(=O)c1ccc(OC2CCN(S(C)(=O)=O)CC2)cc1 [Compound 3, N-(4-Fluoro-phenyl)-N-isobutyl-4-(1-methanesulfonyl-piperidin-4-yloxy)-benzenesulfonamide] | 16
15 | CC(=O)N1CCN(c2ccc(S(=O)(=O)N(CC(C)C)c3cccc(Cl)c3)cc2)CC1 [Compound 17, 4-(4-Acetyl-piperazin-1-yl)-N-(3-chloro-phenyl)-N-isobutyl-benzenesulfonamide] | 138

The remaining lines, values ahead:

Row | IC50 [nM] | SMILES
16 | 33 | CC(C)CN(c1cccc(Cl)c1)S(=O)(=O)c1ccc(N2CCN(S(C)(=O)=O)CC2)cc1F [Compound 27, N-(3-Chloro-phenyl)-2-fluoro-N-isobutyl-4-(4-methanesulfonyl-piperazin-1-yl)-benzenesulfonamide]
17 | 33 | CC(C)CN(c1ccccc1C(F)(F)F)S(=O)(=O)c1ccc(NC2CCN(S(C)(=O)=O)CC2)cc1 [Compound 46, N-Isobutyl-4-(1-methanesulfonyl-piperidin-4-ylamino)-N-(2-trifluoromethyl-phenyl)-benzenesulfonamide]
18 | 9 | CS(=O)(=O)N1CCC(Oc2ccc(S(=O)(=O)N(Cc3ccccc3C(F)(F)F)C3CCC3)cc2)CC1 [Compound 89, N-Cyclobutyl-4-(1-methanesulfonyl-piperidin-4-yloxy)-N-(2-trifluoromethyl-benzyl)-benzenesulfonamide]
19 | 28 | CC(=O)N1CCN(c2ccc(S(=O)(=O)N(CC(C)C)c3ccccc3C(F)(F)F)cc2)CC1 [Compound 41, 4-(4-Acetyl-piperazin-1-yl)-N-isobutyl-N-(2-trifluoromethyl-phenyl)-benzenesulfonamide]
20 | 8 | CC(C)CN(c1cccc(Cl)c1)S(=O)(=O)c1ccc(OC2CCN(S(C)(=O)=O)CC2)cc1 [Compound 34, N-(3-Chloro-phenyl)-N-isobutyl-4-(1-methanesulfonyl-piperidin-4-yloxy)-benzenesulfonamide]
21 | 55 | CN(C)S(=O)(=O)N1CCN(c2ccc(S(=O)(=O)N(Cc3ccccc3C(F)(F)F)CC(F)(F)F)cc2)CC1 [Compound 79, 4-{4-[(2,2,2-Trifluoro-ethyl)-(2-trifluoromethyl-benzyl)-sulfamoyl]-phenyl}-piperazine-1-sulfonic acid dimethylamide]
22 | 8 | CC(C)CN(c1cccc(F)c1F)S(=O)(=O)c1ccc(OC2CCN(S(C)(=O)=O)CC2)cc1 [Compound 49, N-(2,3-Difluoro-phenyl)-N-isobutyl-4-(1-methanesulfonyl-piperidin-4-yloxy)-benzenesulfonamide]
23 | 13 | CC(C)CN(c1ccccc1C(F)(F)F)S(=O)(=O)c1ccc(NC(=O)C2CCN(S(C)(=O)=O)CC2)cc1 [Compound 11, 1-Methanesulfonyl-piperidine-4-carboxylic acid {4-[isobutyl-(2-trifluoromethyl-phenyl)-sulfamoyl]-phenyl}-amide]
24 | 39 | CC(C)CN([C@@H](C)c1ccccc1)S(=O)(=O)c1ccc(N2CCN(S(C)(=O)=O)CC2)cc1 [Compound 63, N-Isobutyl-4-(4-methanesulfonyl-piperazin-1-yl)-N-((S)-1-phenyl-ethyl)-benzenesulfonamide]
25 | 11 | CC(C)CN(Cc1ccc(OC(F)(F)F)cc1)S(=O)(=O)c1ccc(NC2CCN(S(C)(=O)=O)CC2)cc1 [Compound 90, N-Isobutyl-4-(1-methanesulfonyl-piperidin-4-ylamino)-N-(4-trifluoromethoxy-benzyl)-benzenesulfonamide]
26 | 39 | CC(=O)N1CCN(c2ccc(S(=O)(=O)N(Cc3ccccc3C(F)(F)F)CC(C)(C)C)cc2)CC1 [Compound 88, 4-(4-Acetyl-piperazin-1-yl)-N-(2,2-dimethyl-propyl)-N-(2-trifluoromethyl-benzyl)-benzenesulfonamide]
27 | 6 | CC(C)CN(Cc1ccccc1C(F)(F)F)S(=O)(=O)c1ccc(NC2CCN(S(C)(=O)=O)CC2)cc1 [Compound 84, N-Isobutyl-4-(1-methanesulfonyl-piperidin-4-ylamino)-N-(2-trifluoromethyl-benzyl)-benzenesulfonamide]
28 | 31 | CC(=O)N1CCN(c2ccc(S(=O)(=O)N(Cc3ccccc3C(F)(F)F)C3CCC3)cc2)CC1 [Compound 76, 4-(4-Acetyl-piperazin-1-yl)-N-cyclobutyl-N-(2-trifluoromethyl-benzyl)-benzenesulfonamide]
29 | 9 | CC(C)CN(c1ccc(F)cc1F)S(=O)(=O)c1ccc(OC2CCN(S(C)(=O)=O)CC2)cc1 [Compound 50, N-(2,4-Difluoro-phenyl)-N-isobutyl-4-(1-methanesulfonyl-piperidin-4-yloxy)-benzenesulfonamide]
